Test results: ChEMBL document CHEMBL4507310, “Data for DCP probe A-1211212” (2021)

What was measured:
[1] = test system: Tyrosine-protein kinase ABL1 (Homo sapiens), P00519 [T315I]; conditions: Compound concentration 1000.0 nM
[2] = molecular target: Tyrosine-protein kinase SYK (Homo sapiens) (UniProt P43405); conditions: Compound concentration 1000.0 nM
[3] = test system: Tyrosine-protein kinase ABL1 (Homo sapiens), P00519 [Q252H]; conditions: Compound concentration 1000.0 nM
[4] = molecular target: TRAF2 and NCK-interacting protein kinase (Homo sapiens) (UniProt Q9UKE5); conditions: Compound concentration 1000.0 nM
[5] = molecular target: Transient receptor potential cation channel subfamily M member 6 (Homo sapiens) (UniProt Q9BX84); conditions: Compound concentration 1000.0 nM
[6] = molecular target: Serine/threonine-protein kinase BRSK1 (Homo sapiens) (UniProt Q8TDC3); conditions: Compound concentration 1000.0 nM
[7] = molecular target: Tyrosine-protein kinase HCK (Homo sapiens) (UniProt P08631); conditions: Compound concentration 1000.0 nM
[8] = molecular target: Dual specificity mitogen-activated protein kinase kinase 4 (Homo sapiens) (UniProt P45985); conditions: Compound concentration 1000.0 nM
[9] = molecular target: Serine/threonine-protein kinase LATS1 (Homo sapiens) (UniProt O95835); conditions: Compound concentration 1000.0 nM
[10] = molecular target: Serine/threonine-protein kinase NLK (Homo sapiens) (UniProt Q9UBE8); conditions: Compound concentration 1000.0 nM
[11] = molecular target: Calcium/calmodulin-dependent protein kinase type 1B (Homo sapiens) (UniProt Q6P2M8); conditions: Compound concentration 1000.0 nM
[12] = test system: Receptor-type tyrosine-protein kinase FLT3 (Homo sapiens), P36888 [D835Y]; conditions: Compound concentration 1000.0 nM
[13] = molecular target: Mitogen-activated protein kinase 14 (Homo sapiens) (UniProt Q16539); conditions: Compound concentration 1000.0 nM
[14] = molecular target: Cannabinoid receptor 1 (Homo sapiens) (UniProt P21554); test: CB1 (h) Eurofins-Cerep binding assay; design: ligand concentration 0.5 nM; conditions: filed as agonist, Compound concentration 10.0 uM
[15] = molecular target: Mitogen-activated protein kinase kinase kinase 11 (Homo sapiens) (UniProt Q16584); conditions: Compound concentration 1000.0 nM
[16] = molecular target: Serine/threonine-protein kinase 32B (Homo sapiens) (UniProt Q9NY57); conditions: Compound concentration 1000.0 nM
[17] = test system: Phosphatidylinositol 4,5-bisphosphate 3-kinase catalytic subunit alpha isoform (Homo sapiens), P42336 [H1047Y]; conditions: Compound concentration 1000.0 nM
[18] = molecular target: G protein-coupled receptor kinase 4 (Homo sapiens) (UniProt P32298); conditions: Compound concentration 1000.0 nM
[19] = molecular target: Cyclin-dependent kinase 4 (Homo sapiens) (UniProt P11802); conditions: Compound concentration 1000.0 nM
[20] = molecular target: Aurora kinase B (Homo sapiens) (UniProt Q96GD4); conditions: Compound concentration 1000.0 nM
[21] = molecular target: Serine/threonine-protein kinase 38 (Homo sapiens) (UniProt Q15208); conditions: Compound concentration 1000.0 nM
[22] = molecular target: Mu-type opioid receptor (Homo sapiens) (UniProt P35372); conditions: Compound concentration 10.0 uM
[23] = molecular target: T1, 5-hydroxytryptamine receptor 3A (Homo sapiens) (UniProt P46098); conditions: Compound concentration 10.0 uM
T1 sequence (whole entry): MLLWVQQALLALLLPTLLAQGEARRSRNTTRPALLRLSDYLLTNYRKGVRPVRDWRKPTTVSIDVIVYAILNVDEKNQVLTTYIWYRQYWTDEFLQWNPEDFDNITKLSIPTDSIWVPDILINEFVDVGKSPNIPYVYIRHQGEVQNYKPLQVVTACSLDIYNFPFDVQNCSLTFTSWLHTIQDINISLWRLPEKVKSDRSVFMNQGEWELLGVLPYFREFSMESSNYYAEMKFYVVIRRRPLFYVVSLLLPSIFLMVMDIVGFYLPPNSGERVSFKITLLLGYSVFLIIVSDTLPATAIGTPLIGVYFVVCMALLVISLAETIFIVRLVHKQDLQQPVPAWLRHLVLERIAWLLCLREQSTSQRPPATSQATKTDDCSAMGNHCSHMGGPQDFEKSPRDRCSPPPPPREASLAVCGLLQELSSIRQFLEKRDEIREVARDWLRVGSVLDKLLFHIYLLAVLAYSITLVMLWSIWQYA

[24] = molecular target: Dual specificity mitogen-activated protein kinase kinase 3 (Homo sapiens) (UniProt P46734); conditions: Compound concentration 1000.0 nM
[25] = molecular target: Homeodomain-interacting protein kinase 3 (Homo sapiens) (UniProt Q9H422); conditions: Compound concentration 1000.0 nM
[26] = molecular target: Ephrin type-A receptor 8 (Homo sapiens) (UniProt P29322); conditions: Compound concentration 1000.0 nM
[27] = molecular target: L-type Ca2+ channel (dihydropyridine site) (Rattus norvegicus, UniProt P22002+P27732+Q02485); test: Ca2+ channel (L, dihydropyridine site) Eurofins-Cerep binding assay; format: protein assay; design: incubation time 90 min, incubation temperature RT, ligand concentration 0.1 nM; conditions: rat cerebral cortex, probe [3H]nitrendipine (0.1 nM), compound concentration 10 uM, read-out: % Inhibition of Control Specific Binding (Mean n=2)
[28] = molecular target: T2, 5-hydroxytryptamine receptor 1A (Homo sapiens) (UniProt P08908); test: 5-HT1A (h) Eurofins-Cerep binding assay; design: ligand concentration 0.5 nM; conditions: filed as agonist, Compound concentration 10.0 uM
T2 sequence (whole entry): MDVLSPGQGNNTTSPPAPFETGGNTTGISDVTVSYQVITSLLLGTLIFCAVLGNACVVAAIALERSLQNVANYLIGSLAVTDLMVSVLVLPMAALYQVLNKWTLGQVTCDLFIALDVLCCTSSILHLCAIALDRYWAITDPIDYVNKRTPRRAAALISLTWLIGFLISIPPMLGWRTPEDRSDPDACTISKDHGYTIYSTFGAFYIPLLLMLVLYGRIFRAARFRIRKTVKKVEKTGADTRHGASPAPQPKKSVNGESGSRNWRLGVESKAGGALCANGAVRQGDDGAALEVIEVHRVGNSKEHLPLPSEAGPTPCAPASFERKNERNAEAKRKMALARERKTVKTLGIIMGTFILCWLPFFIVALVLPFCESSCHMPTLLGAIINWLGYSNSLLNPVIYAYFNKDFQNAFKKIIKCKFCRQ

[29] = molecular target: Tyrosine-protein kinase Tec (Homo sapiens) (UniProt P42680); conditions: Compound concentration 1000.0 nM
[30] = molecular target: cAMP-dependent protein kinase catalytic subunit beta (Homo sapiens) (UniProt P22694); conditions: Compound concentration 1000.0 nM
[31] = molecular target: G protein-coupled receptor kinase 3 (Homo sapiens) (UniProt P35626); conditions: Compound concentration 1000.0 nM
[32] = molecular target: Calcium/calmodulin-dependent protein kinase type II subunit beta (Homo sapiens) (UniProt Q13554); conditions: Compound concentration 1000.0 nM

Sequence of Transient receptor potential cation channel subfamily M member 6 (Homo sapiens) (Q9BX84 whole entry): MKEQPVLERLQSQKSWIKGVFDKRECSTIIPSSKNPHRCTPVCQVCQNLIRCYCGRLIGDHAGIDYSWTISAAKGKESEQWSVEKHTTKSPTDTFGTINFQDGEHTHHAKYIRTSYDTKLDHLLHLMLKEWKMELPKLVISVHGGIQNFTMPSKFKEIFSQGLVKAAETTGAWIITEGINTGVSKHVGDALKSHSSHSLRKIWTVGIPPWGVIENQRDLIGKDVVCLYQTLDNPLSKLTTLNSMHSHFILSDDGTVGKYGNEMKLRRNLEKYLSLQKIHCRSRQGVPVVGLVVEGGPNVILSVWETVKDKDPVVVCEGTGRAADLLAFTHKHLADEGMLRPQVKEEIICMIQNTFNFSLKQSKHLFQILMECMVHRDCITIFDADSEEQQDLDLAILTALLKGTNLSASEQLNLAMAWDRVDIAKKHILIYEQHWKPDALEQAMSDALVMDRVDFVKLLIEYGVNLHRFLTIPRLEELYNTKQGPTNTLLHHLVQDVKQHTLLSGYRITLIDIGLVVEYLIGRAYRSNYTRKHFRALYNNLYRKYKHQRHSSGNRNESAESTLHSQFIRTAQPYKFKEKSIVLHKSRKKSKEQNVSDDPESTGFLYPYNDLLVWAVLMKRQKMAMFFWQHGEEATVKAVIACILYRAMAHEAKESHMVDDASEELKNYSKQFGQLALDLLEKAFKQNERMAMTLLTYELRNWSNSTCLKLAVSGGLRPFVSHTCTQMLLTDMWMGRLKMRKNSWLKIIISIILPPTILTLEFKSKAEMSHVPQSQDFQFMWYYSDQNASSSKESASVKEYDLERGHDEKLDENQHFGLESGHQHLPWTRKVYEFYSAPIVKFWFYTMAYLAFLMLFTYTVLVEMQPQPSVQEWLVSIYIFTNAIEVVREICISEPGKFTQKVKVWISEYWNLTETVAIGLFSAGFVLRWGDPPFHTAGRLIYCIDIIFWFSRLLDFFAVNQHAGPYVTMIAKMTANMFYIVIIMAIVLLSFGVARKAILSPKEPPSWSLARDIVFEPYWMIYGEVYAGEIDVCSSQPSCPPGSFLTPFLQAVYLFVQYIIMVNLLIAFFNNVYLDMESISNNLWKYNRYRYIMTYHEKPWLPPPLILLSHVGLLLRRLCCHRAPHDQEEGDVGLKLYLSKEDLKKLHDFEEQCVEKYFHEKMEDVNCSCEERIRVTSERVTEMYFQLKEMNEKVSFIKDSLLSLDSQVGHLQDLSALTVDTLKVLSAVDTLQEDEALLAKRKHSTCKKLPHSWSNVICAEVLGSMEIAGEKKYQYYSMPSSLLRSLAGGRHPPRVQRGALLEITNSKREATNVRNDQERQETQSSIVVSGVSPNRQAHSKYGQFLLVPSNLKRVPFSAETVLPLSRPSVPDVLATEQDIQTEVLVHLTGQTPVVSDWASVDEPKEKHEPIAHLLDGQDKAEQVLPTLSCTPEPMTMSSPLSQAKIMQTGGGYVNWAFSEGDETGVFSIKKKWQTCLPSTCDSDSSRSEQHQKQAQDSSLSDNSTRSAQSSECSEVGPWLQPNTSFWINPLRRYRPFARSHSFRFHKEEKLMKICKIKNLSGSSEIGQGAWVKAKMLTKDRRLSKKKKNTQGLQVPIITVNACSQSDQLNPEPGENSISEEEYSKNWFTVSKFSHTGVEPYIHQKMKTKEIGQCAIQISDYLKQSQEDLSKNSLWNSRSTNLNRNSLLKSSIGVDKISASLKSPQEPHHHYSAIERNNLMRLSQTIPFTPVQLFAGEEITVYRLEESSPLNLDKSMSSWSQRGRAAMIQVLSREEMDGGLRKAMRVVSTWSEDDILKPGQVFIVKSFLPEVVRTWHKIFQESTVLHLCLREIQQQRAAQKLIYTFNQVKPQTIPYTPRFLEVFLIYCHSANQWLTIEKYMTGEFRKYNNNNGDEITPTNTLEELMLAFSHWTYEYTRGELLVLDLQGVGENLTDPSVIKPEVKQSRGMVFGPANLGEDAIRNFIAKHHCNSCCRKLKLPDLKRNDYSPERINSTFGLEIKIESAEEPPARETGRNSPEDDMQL
Sequence of Homeodomain-interacting protein kinase 3 (Homo sapiens) (Q9H422 whole entry, looked up): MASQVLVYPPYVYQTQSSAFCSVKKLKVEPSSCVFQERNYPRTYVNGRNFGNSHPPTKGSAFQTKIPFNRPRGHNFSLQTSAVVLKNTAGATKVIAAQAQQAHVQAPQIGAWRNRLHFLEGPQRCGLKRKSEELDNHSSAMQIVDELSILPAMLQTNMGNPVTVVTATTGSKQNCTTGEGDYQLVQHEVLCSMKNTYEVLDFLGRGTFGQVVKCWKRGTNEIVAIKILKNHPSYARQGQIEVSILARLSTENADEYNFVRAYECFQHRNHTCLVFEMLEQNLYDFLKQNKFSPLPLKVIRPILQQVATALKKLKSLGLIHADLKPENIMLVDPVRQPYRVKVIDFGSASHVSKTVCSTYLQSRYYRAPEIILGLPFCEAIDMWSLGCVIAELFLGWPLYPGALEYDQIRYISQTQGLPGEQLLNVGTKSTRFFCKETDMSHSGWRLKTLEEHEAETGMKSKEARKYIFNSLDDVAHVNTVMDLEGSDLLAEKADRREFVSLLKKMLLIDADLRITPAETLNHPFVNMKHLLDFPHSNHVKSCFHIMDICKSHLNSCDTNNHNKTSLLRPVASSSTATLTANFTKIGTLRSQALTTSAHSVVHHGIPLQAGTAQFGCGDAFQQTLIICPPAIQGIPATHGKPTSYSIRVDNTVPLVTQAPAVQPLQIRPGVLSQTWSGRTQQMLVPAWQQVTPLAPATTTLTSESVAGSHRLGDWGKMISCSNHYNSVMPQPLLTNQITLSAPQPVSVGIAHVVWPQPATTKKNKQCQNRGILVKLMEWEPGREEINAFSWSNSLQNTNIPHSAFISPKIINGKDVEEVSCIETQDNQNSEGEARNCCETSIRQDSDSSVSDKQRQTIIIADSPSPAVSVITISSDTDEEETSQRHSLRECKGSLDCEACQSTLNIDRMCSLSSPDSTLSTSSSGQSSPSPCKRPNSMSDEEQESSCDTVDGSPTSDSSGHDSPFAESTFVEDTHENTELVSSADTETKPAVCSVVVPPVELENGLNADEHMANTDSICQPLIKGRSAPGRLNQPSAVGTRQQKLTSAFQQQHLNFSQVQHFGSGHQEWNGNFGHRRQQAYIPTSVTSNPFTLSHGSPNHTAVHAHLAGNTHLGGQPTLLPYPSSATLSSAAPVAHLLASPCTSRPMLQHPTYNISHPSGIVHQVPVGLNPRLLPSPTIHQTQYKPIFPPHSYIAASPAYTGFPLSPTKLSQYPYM
Sequence of Phosphatidylinositol 4,5-bisphosphate 3-kinase catalytic subunit alpha isoform (Homo sapiens), P42336 [H1047Y] (P42336 whole entry H1047Y, canonical isoform): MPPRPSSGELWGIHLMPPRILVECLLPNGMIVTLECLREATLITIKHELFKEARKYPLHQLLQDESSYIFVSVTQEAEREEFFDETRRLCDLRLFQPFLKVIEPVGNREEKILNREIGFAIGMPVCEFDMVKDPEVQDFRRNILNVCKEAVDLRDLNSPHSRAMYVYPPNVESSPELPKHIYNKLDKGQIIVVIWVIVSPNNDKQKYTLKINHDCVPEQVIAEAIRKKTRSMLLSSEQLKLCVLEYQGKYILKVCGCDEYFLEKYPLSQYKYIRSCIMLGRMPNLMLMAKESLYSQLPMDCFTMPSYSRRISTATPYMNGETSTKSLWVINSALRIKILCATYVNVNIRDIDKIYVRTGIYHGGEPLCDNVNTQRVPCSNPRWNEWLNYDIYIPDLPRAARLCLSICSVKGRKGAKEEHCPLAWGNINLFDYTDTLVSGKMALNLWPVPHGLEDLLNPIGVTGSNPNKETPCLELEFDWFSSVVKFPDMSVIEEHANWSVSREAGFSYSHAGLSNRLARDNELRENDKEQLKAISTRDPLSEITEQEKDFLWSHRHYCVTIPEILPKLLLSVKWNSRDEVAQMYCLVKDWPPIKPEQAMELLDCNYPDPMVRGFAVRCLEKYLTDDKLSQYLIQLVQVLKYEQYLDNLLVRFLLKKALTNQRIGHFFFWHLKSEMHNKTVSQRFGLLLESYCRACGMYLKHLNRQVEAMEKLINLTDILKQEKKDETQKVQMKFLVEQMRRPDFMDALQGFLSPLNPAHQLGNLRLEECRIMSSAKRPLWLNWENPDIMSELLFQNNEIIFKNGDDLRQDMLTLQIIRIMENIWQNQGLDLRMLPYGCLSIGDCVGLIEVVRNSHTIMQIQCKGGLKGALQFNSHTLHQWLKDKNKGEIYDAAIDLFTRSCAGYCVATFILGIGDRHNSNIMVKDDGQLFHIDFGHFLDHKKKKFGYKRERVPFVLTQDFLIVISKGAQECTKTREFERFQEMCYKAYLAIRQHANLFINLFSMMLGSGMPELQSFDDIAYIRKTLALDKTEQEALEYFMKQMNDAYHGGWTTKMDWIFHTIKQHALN
Sequence of Calcium/calmodulin-dependent protein kinase type 1B (Homo sapiens) (Q6P2M8 whole entry): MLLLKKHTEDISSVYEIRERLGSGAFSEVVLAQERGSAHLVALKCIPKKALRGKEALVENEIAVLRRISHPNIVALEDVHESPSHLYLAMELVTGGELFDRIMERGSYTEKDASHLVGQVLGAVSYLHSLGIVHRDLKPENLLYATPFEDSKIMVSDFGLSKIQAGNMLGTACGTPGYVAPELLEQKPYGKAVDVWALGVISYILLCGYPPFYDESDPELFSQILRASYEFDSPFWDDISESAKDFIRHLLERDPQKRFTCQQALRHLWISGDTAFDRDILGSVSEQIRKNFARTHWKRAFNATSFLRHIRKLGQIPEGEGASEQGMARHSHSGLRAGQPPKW
Sequence of Mitogen-activated protein kinase 14 (Homo sapiens) (Q16539 whole entry): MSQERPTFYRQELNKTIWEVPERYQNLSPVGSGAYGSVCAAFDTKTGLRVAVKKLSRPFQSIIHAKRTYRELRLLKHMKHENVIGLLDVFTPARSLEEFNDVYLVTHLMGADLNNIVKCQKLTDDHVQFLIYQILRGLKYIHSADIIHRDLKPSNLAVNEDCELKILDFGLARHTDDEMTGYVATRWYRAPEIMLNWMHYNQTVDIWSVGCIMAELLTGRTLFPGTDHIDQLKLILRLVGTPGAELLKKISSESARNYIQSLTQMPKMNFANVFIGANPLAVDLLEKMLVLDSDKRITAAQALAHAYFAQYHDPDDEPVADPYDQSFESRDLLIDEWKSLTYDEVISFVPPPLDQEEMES

| Compound | residual activity [1] | residual activity [2] | residual activity [3] | residual activity [4] | residual activity [5] | residual activity [6] | residual activity [7] | residual activity [8] | residual activity [9] | residual activity [10] | residual activity [11] | residual activity [12] | residual activity [13] | % Inhibition of Control Specific Binding (Mean n=2) [14] | residual activity [15] | residual activity [16] | residual activity [17] | residual activity [18] | residual activity [19] | residual activity [20] | also measured |
| --- | --- | --- | --- | --- | --- | --- | --- | --- | --- | --- | --- | --- | --- | --- | --- | --- | --- | --- | --- | --- | --- |
| O=C(NS(=O)(=O)c1ccc(NCC2CCOCC2)c([N+](=O)[O-])c1)c1ccc(N2CCN(Cc3ccc(C(F)(F)F)cc3-c3ccc(Cl)cc3)CC2)cc1Oc1cnc2[nH]ccc2c1 [A-1210227] | 100% | 99% | 84% | 100% | 89% | 100% | 99% | 100% | 100% | 93% | 0% | 99% | 97% | -13.7% | 91% | 100% | 67% | 100% | 100% | 100% | residual activity [21]: 90%; inhibition [22]: 10.7%; inhibition [23]: 8.67%; residual activity [24]: 80%; residual activity [25]: 100%; residual activity [26]: 84%; inhibition at 90 min, 10 µM [27]: 7.3%; % Inhibition of Control Specific Binding (Mean n=2) [28]: -3.4%; residual activity [29]: 71%; residual activity [30]: 91%; residual activity [31]: 78%; residual activity [32]: 96% |
| CO[C@H]1CC[C@H](CNc2ccc(S(=O)(=O)NC(=O)c3ccc(N4CCN(CC5=C(c6ccc(Cl)cc6)CC(C)(C)CC5)CC4)cc3Oc3cnc4[nH]ccc4c3)cc2[N+](=O)[O-])CC1 [A-1211212] | 80% | 62% | 100% | 100% | 87% | 100% | 71% | 98% | 87% | 100% | 81% | 100% | 83% | -6.4% | 74% | 100% | 70% | 100% | 100% | 100% | residual activity [21]: 98%; inhibition [22]: 10.2%; inhibition [23]: 7.56%; residual activity [24]: 92%; residual activity [25]: 100%; residual activity [26]: 84%; inhibition at 90 min, 10 µM [27]: 63.2%; % Inhibition of Control Specific Binding (Mean n=2) [28]: -2.7%; residual activity [29]: 74%; residual activity [30]: 88%; residual activity [31]: 79%; residual activity [32]: 80% |
